Consider three test systems from the supplement of paper PMC6045584.

Compound in assay [1]: CC(=O)c1c(C)c2cnc(Nc3ccc(N4CCNCC4)cn3)nc2n(C2CCCC2)c1=O
As to the kind of experiment: area under dose-response curve of surviving fraction (unscaled, Aref=0) (surviving fraction x log10(nM)); higher = more resistant. Conditions: exposure time: 5 days; dose range 0.5-1000 nM. An outline of the steps: (§1)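 Each tumour cell line was screened three times in 384-well plates, receiving eight inhibitor concentrations from 0.5 to 1000 nM for five days. CellTiter-Glo luminescence gave viability, normalised to DMSO-only wells. Using the drc R package, surviving fractions were fitted with 3-parameter logistic dose-response curves, and the unscaled activity area over log10 dose (Aref = 0) was taken as the area under the curve.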

Compound in the next assay: Cc1ccc(-c2cc(C(F)(F)F)nn2-c2ccc(S(N)(=O)=O)cc2)cc1 [CELECOXIB]
The assay is described as above. Conditions: exposure time: 5 days; dose range 0.5-1000 nM. An outline of the steps: as §1

Compound in a further assay: CC[C@@]1(O)C(=O)OCc2c1cc1n(c2=O)Cc2cc3ccccc3nc2-1 [CAMPTOTHECIN]
Described as above. The settings on record: exposure time: 5 days; dose range 0.5-1000 nM. The method in brief:
as §1

Compound in the next assay: C[C@]1(O)C[C@@H](c2nc(-c3ccc4ccc(-c5ccccc5)nc4c3)c3c(N)nccn32)C1 [OSI-906]
Described as above. Conditions: exposure time: 5 days; dose range 0.5-1000 nM. An outline of the steps:
as §1

Compound in assay [2]: T1, O=C(O)C1(C(=O)O)CCC1.[NH2-].[NH2-].[Pt+2] [CARBOPLATIN]
The description is as above. The settings on record: exposure time: 5 days; dose range 0.5-1000 nM. An outline of the steps:
as §1

Compound in a further assay: COc1cc2ncnc(Nc3ccc(F)c(Cl)c3)c2cc1OCCCN1CCOCC1 [GEFITINIB]
The description is as above. The settings on record: exposure time: 5 days; dose range 0.5-1000 nM. The method in brief:
as §1

Compound in assay [3]: CC(=O)NCC(=O)N1[C@@H]2CC[C@H]1c1ccc(Nc3ncc(C(F)(F)F)c(NC4CCC4)n3)cc12
The assay is described as above. Conditions: exposure time: 5 days; dose range 0.5-1000 nM. The method in brief: as §1

Compound in the next assay: COCC[n+]1c2c(n(Cc3cnccn3)c1C)C(=O)c1ccccc1C2=O [YM155]
The assay is described as above. Conditions: exposure time: 5 days; dose range 0.5-1000 nM. An outline of the steps: as §1

Compound in the next assay: CC(=O)O[C@H]1C(=O)[C@@]2(C)[C@H]([C@H](OC(=O)c3ccccc3)[C@]3(O)C[C@H](OC(=O)[C@H](O)[C@@H](NC(=O)c4ccccc4)c4ccccc4)C(C)=C1C3(C)C)[C@]1(OC(C)=O)CO[C@@H]1C[C@@H]2O [PACLITAXEL]
Described as above. The settings on record: exposure time: 5 days; dose range 0.5-1000 nM. An outline of the steps: as §1

Compound in assay [4]: T1, CARBOPLATIN
As to the kind of experiment: surviving fraction relative to DMSO-only wells; higher = less growth inhibition. The settings on record: exposure time: 5 days. An outline of the steps: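 A line counted only if its three screens reached replicate Pearson r >0.7 and median Z' >0.3. Tumour cells in log phase were seeded at 250–500 per well in 384-well plates and, after 24 hours, kept in continuous contact with inhibitors at 0.5, 1, 5, 10, 50, 100, 500 and 1000 nM for five days. Surviving fraction was taken from CellTiter-Glo luminescence relative to the median of DMSO-only wells.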

± gives the standard deviation of the averaged measurements.

In the case of HCC1806 BREAST, the “area under dose-response curve” value came out at 3.44 in assay [1]; 3.65 with CELECOXIB; 0.682 in the assay with CAMPTOTHECIN; 2.83 in the assay with OSI-906; 3.64 with CARBOPLATIN [2]; 2.94 in the assay with GEFITINIB. Also, the “area under dose-response curve” value worked out at 2.62 in assay [3], 1.02 in the assay with YM155 and 0.267 with PACLITAXEL. Also, the surviving fraction with CARBOPLATIN [4] (0.5 nM) was determined as 1.05 ± 0.14; with CARBOPLATIN [4] (1 nM) it was 0.777 ± 0.044; in the assay with CARBOPLATIN [4] (5 nM) it was 1.1 ± 0.15; with CARBOPLATIN [4] (10 nM) it was 1.2 ± 0.012; with CARBOPLATIN [4] (50 nM), 1.17 ± 0.081; with CARBOPLATIN [4] (100 nM), 1.14 ± 0.14. Also, the surviving fraction is 1.04 ± 0.086 with CARBOPLATIN [4] (500 nM) and 1.16 ± 0.14 in the assay with CARBOPLATIN [4] (1000 nM).
With NY BONE, the “area under dose-response curve” value in assay [1] turned out to be 3.46; with CELECOXIB it was 3.48; in the assay with CAMPTOTHECIN it was 1.16; in the assay with OSI-906, 3.15; in the assay with CARBOPLATIN [2], 3.46; with GEFITINIB, 3.43. Besides, the “area under dose-response curve” value in assay [3] is 2.51; in the assay with YM155, 2.96; in the assay with PACLITAXEL, 0.337. Also, the surviving fraction in the assay with CARBOPLATIN [4] (0.5 nM) came to 1.03 ± 0.02; in the assay with CARBOPLATIN [4] (1 nM) it was 0.9813 ± 0.0058; with CARBOPLATIN [4] (5 nM), 1.08 ± 0.019; with CARBOPLATIN [4] (10 nM) it was 1.03 ± 0.024; with CARBOPLATIN [4] (50 nM) it was 1.09 ± 0.019; in the assay with CARBOPLATIN [4] (100 nM), 1.099 ± 0.0055. The figures for the surviving fraction with CARBOPLATIN [4] (500 nM) and with CARBOPLATIN [4] (1000 nM) were 1.05 ± 0.012 and 1.03 ± 0.016, respectively.
For KPD BONE, the “area under dose-response curve” value came out at 3.15 in [1]; 3.48 in the assay with CELECOXIB; 1.2 in the assay with CAMPTOTHECIN; 2.38 with OSI-906; 3.52 with CARBOPLATIN [2]; 3.15 with GEFITINIB. Further, the results for the “area under dose-response curve” value (in assay [3]; with YM155; with PACLITAXEL) were 2.67, 1.1 and 1.47, respectively. Besides, the surviving fraction in the assay with CARBOPLATIN [4] (0.5 nM) is 1.02 ± 0.032; with CARBOPLATIN [4] (1 nM) it was 1.07 ± 0.065; with CARBOPLATIN [4] (5 nM) it was 1.12 ± 0.033; with CARBOPLATIN [4] (10 nM), 1.05 ± 0.051; with CARBOPLATIN [4] (50 nM), 1.09 ± 0.02; with CARBOPLATIN [4] (100 nM), 1.1 ± 0.05. The surviving fraction in the assay with CARBOPLATIN [4] (500 nM) is 1.04 ± 0.084; with CARBOPLATIN [4] (1000 nM) it was 1.03 ± 0.016.
